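Step 1: Grow cells in 96-well plates. Step 2: Expose to compound for 48 hours at 5 concentrations. Step 3: Interpolate endpoints linearly; if unreached, use highest concentration. GI50 is the concentration that inhibits growth by half.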 The source made the active and inactive calls. Rule as the data show it: active = GI50 up to about 1.1 µM and inactive = higher.
What was measured:
Test in all cases: NCI tumour cell line growth inhibition, 48 h
786-0 = test system: 786-0
A498 = test system: A498
A549 = test system: A549
ACHN = test system: ACHN
BT-549 = test system: BT-549
CAKI-1 = test system: CAKI-1
CCRF-CEM = test system: CCRF-CEM
COLO 205 = test system: COLO 205
DU-145 = test system: DU-145
EKVX = test system: EKVX
HCC 2998 = test system: HCC 2998
HCT-116 = test system: HCT-116
HCT-15 = test system: HCT-15
HL-60 = test system: HL-60
HOP-62 = test system: HOP-62
HOP-92 = test system: HOP-92
HT-29 = test system: HT-29
Hs-578T = test system: Hs-578T
IGROV-1 = test system: IGROV-1
K562 = test system: K562
KM12 = test system: KM12
M14 = test system: M14
MCF7 = test system: MCF7
MDA-MB-231 = test system: MDA-MB-231
MDA-MB-435 = test system: MDA-MB-435
MDA-N = test system: MDA-N
MOLT-4 = test system: MOLT-4
Malme-3M = test system: Malme-3M
NCI-H226 = test system: NCI-H226
NCI-H23 = test system: NCI-H23
NCI-H460 = test system: NCI-H460
NCI-H522 = test system: NCI-H522
NCI/ADR-RES = test system: NCI/ADR-RES
OVCAR-3 = test system: OVCAR-3
OVCAR-4 = test system: OVCAR-4
OVCAR-5 = test system: OVCAR-5
OVCAR-8 = test system: OVCAR-8
PC-3 = test system: PC-3
RPMI-8226 = test system: RPMI-8226
RXF 393 = test system: RXF 393
SF-268 = test system: SF-268
SF-295 = test system: SF-295
SF-539 = test system: SF-539
SK-MEL-28 = test system: SK-MEL-28
SK-MEL-2 = test system: SK-MEL-2
SK-MEL-5 = test system: SK-MEL-5
SK-OV-3 = test system: SK-OV-3
SN12C = test system: SN12C
SNB-19 = test system: SNB-19
SR = test system: SR
T47D = test system: T47D
TK-10 = test system: TK-10
U-251 = test system: U-251
UACC-257 = test system: UACC-257
UACC-62 = test system: UACC-62
UO-31 = test system: UO-31

## COC(=O)c1c(O)ccc2[nH]c3c(O)c4ccccc4cc3c12
786-0
  GI50: 32 µM (inactive)
A498
  GI50: 41.4 µM (inactive)
A549
  GI50: 32.2 µM (inactive)
ACHN
  GI50: 27.9 µM (inactive)
BT-549
  GI50: 39.3 µM (inactive)
CAKI-1
  GI50: 18.5 µM (inactive)
CCRF-CEM
  GI50: 20.8 µM (inactive)
COLO 205
  GI50: 18.3 µM (inactive)
DU-145
  GI50: 20 µM (inactive)
EKVX
  GI50: 16.8 µM (inactive)
HCC 2998
  GI50: 13.9 µM (inactive)
HCT-116
  GI50: 16.7 µM (inactive)
HCT-15
  GI50: 20.5 µM
HL-60
  GI50: 14.1 µM (inactive)
HOP-62
  GI50: 22.4 µM (inactive)
HOP-92
  GI50: 29.6 µM (inactive)
HT-29
  GI50: 33.3 µM (inactive)
Hs-578T
  GI50: 23.7 µM (inactive)
IGROV-1
  GI50: 16.7 µM (inactive)
K562
  GI50: 47 µM (inactive)
KM12
  GI50: 16 µM (inactive)
M14
  GI50: 30.2 µM (inactive)
MCF7
  GI50: 16 µM (inactive)
MDA-MB-231
  GI50: 75 µM (inactive)
MDA-MB-435
  GI50: 27.9 µM (inactive)
MDA-N
  GI50: 28.4 µM (inactive)
MOLT-4
  GI50: 37.2 µM (inactive)
Malme-3M
  GI50: 20.2 µM (inactive)
NCI-H226
  GI50: 65.8 µM (inactive)
NCI-H23
  GI50: 23 µM (inactive)
NCI-H460
  GI50: 24.1 µM (inactive)
NCI-H522
  GI50: 32 µM (inactive)
NCI/ADR-RES
  GI50: 29.9 µM (inactive)
OVCAR-3
  GI50: 15.9 µM (inactive)
OVCAR-4
  GI50: 25.5 µM (inactive)
OVCAR-5
  GI50: 76.9 µM (inactive)
OVCAR-8
  GI50: 20.2 µM (inactive)
PC-3
  GI50: 30.4 µM (inactive)
RPMI-8226
  GI50: 17.4 µM (inactive)
RXF 393
  GI50: 31.3 µM (inactive)
SF-268
  GI50: 21.9 µM (inactive)
SF-295
  GI50: 18.9 µM (inactive)
SF-539
  GI50: 21.4 µM (inactive)
SK-MEL-28
  GI50: 35 µM (inactive)
SK-MEL-2
  GI50: 32.4 µM (inactive)
SK-MEL-5
  GI50: 24 µM (inactive)
SK-OV-3
  GI50: 33.6 µM (inactive)
SN12C
  GI50: 43.6 µM (inactive)
SNB-19
  GI50: 41.7 µM (inactive)
SR
  GI50: 43.5 µM (inactive)
T47D
  GI50: 15.1 µM (inactive)
TK-10
  GI50: 34.2 µM (inactive)
U-251
  GI50: 36.5 µM (inactive)
UACC-257
  GI50: 34.1 µM (inactive)
UACC-62
  GI50: 61.4 µM (inactive)
UO-31
  GI50: 26.8 µM (inactive)
